Assay [1] concerns T47D (PI3Kα-H1047R) cell line. The assay can be described thus: HTRF phospho-AKT(S473) cell assay in T47D cells. In kind it is cell-based, human. In short, it runs like this:
(§1)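 T47D (PI3Kα-H1047R; RPMI, 10% FBS, insulin) and SKBR3 (wild-type PI3Kα; McCoy's 5A, 10% FBS) cells treated 2 h at 37 °C with 12-point 1:3 dilutions, top 5 μM and 10 μM respectively, ≤0.5% DMSO. SKBR3 stimulated with 70 ng/ml PDGF-BB for the last 15 min; lysate pAKT(S473) by HTRF, IC50 from curves.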
For orientation: In TR-FRET formats the signal depends on donor and acceptor labels being close together.

In assay [2] the test system is SKBR3 (PI3Kα-Wild Type) cell line. Nature of the assay: HTRF phospho-AKT(S473) cell assay in SKBR3 cells. In kind it is cell-based, human. In a few lines:
as §1

The mark [3] stands for this setting: Homo sapiens; HTRF phospho-AKT(S473), T47D (PI3Kα-H1047R) cells, 2 hours compound incubation.
The mark [4] stands for this setting: Homo sapiens, SK-BR-3; HTRF phospho-AKT(S473), SKBR3 (PI3Kα-Wild Type) cells, 2 hours compound incubation, PDGF-BB stimulated.
The mark [5] stands for this setting: Homo sapiens; T47D (PI3Kα-H1047R) cells, HTRF phospho-AKT(S473), 2 hours compound incubation.
Where [6] appears, read: Homo sapiens, SK-BR-3; SKBR3 (PI3Kα-Wild Type) cells, HTRF phospho-AKT(S473), 2 hours compound incubation, PDGF-BB stimulated.

pIC50: −log10 of the molar value.

A word on the pIC50: it is the IC50 on a negative log10 scale, so that one unit is a factor of ten. For the molecule `Cc1cc([C@@H](C)Nc2ccc(Cl)nc2C(=O)NS(C)(=O)=O)c2nc(N3CCC[C@@H](c4nccc(C)n4)C3)n(C)c(=O)c2c1` (relative stereo) [Compound 647, 6-chloro-3-(((R)-1-(3,6-dimethyl-2-((R*)-3-(4-methylpyrimidin-2-yl)piperidin-1-yl)-4-oxo-3,4-dihydroquinazolin-8-yl)ethyl)amino)-N-(methylsulfonyl) picolinamide], the negative-log IC50 (pIC50) in assay [1] (setting [3]) is 6.30 to 6.60; in assay [2] (setting [4]), not above 5.30.

For the molecule `Cc1cc([C@@H](C)Nc2ccc(Cl)nc2C(=O)NS(C)(=O)=O)c2nc(-c3ccc4nn(CC5CC5)cc4c3)n(C)c(=O)c2c1` [Compound 795, (R)-6-chloro-3-((1-(2-(2-(cyclopropylmethyl)-2H-indazol-5-yl)-3,6-dimethyl-4-oxo-3,4-dihydroquinazolin-8-yl)ethyl)amino)-N-(methylsulfonyl) picolinamide], the results for the pIC50 in assay [1] (setting [3]) and in assay [2] (setting [4]) were more than 6.60 and 5.30 to 6.00, respectively.

For the molecule `Cc1cc([C@@H](C)Nc2ccc(Cl)nc2C(=O)NS(=O)(=O)c2ccc(N(C)C)nc2)c2nc(N3Cc4ccc(F)cc4C3)n(C)c(=O)c2c1` [Compound 757, (R)-6-chloro-N-((6-(dimethylamino)pyridin-3-yl)sulfonyl)-3-((1-(2-(5-fluoroisoindolin-2-yl)-3,6-dimethyl-4-oxo-3,4-dihydroquinazolin-8-yl)ethyl)amino) picolinamide], the results for the pIC50 in assay [1] (setting [3]) and in assay [2] (setting [4]) were 6.30 to 6.60 and not above 5.30, respectively.

`Cc1cc([C@@H](C)Nc2ccc(Cl)nc2C(=O)NS(C)(=O)=O)c2nc(N3CCN(c4ccn(C)n4)[C@H](C)C3)n(C)c(=O)c2c1` [Compound 256, 6-chloro-3-(((R)-1-(3,6-dimethyl-2-((R)-3-methyl-4-(1-methyl-1H-pyrazol-3-yl)piperazin-1-yl)-4-oxo-3,4-dihydroquinazolin-8-yl)ethyl)amino)-N-(methylsulfonyl) picolinamide]: the negative logarithm of the IC50 (pIC50) in assay [1] (setting [5]) is more than 6.60; in assay [2] (setting [6]), 5.30 to 6.00.

`Cc1cc([C@@H](C)Nc2ccc(Cl)nc2C(=O)NS(C)(=O)=O)c2nc(N3Cc4cc(F)cnc4C3)n(C)c(=O)c2c1` [Compound 225, (R)-6-chloro-3-((1-(2-(3-fluoro-5,7-dihydro-6H-pyrrolo[3,4-b]pyridin-6-yl)-3,6-dimethyl-4-oxo-3,4-dihydroquinazolin-8-yl)ethyl)amino)-N-(methylsulfonyl) picolinamide]: the pIC50 in assay [1] (setting [5]) is more than 6.60; in assay [2] (setting [6]), 5.30 to 6.00.

For `Cc1cc([C@@H](C)Nc2ccc(Cl)nc2C(=O)NS(C)(=O)=O)c2nc(N3C[C@@H]4[C@H](C3)[C@H]4c3ccnc(C)c3F)n(C)c(=O)c2c1` [Compound 548, 6-chloro-3-(((R)-1-(2-((1R,5S,6S)-6-(3-fluoro-2-methylpyridin-4-yl)-3-azabicyclo[3.1.0]hexan-3-yl)-3,6-dimethyl-4-oxo-3,4-dihydroquinazolin-8-yl)ethyl)amino)-N-(methylsulfonyl) picolinamide], the negative-log IC50 (pIC50) is 6.30 to 6.60 in assay [1] (setting [3]) and 5.30 to 6.00 in assay [2] (setting [4]).

Consider `[2H]C([2H])([2H])n1ncc2cc(-c3nc4c([C@@H](C)Nc5ccc(Cl)nc5C(=O)NS(C)(=O)=O)cc(C)cc4c(=O)n3C)ccc21` [Compound 818, (R)-6-chloro-3-((1-(3,6-dimethyl-2-(1-(methyl-d3)-1H-indazol-5-yl)-4-oxo-3,4-dihydroquinazolin-8-yl)ethyl)amino)-N-(methylsulfonyl) picolinamide], for which the pIC50 is more than 6.60 in assay [1] (setting [3]) and 5.30 to 6.00 in assay [2] (setting [4]).

Regarding `Cc1cc([C@@H](C)Nc2ccc(Cl)nc2C(=O)NS(C)(=O)=O)c2nc(N3Cc4cn(C(F)F)nc4C3)n(C)c(=O)c2c1` [Compound 176, (R)-6-chloro-3-((1-(2-(2-(difluoromethyl)-2,6-dihydropyrrolo[3,4-c]pyrazol-5(4H)-yl)-3,6-dimethyl-4-oxo-3,4-dihydroquinazolin-8-yl)ethyl)amino)-N-(methylsulfonyl) picolinamide], the figures for the pIC50 in assay [1] (setting [5]) and in assay [2] (setting [6]) were more than 6.60 and 5.30 to 6.00, respectively.

As to `Cc1cc([C@@H](C)Nc2ccc(Cl)nc2C(=O)NS(C)(=O)=O)c2nc(N3C[C@H]4C[C@@]4(c4cnc(C)nc4)C3)n(C)c(=O)c2c1` (relative stereo) [Compound 751, 6-chloro-3-(((R)-1-(3,6-dimethyl-2-((1R*,5S*)-1-(2-methylpyrimidin-5-yl)-3-azabicyclo[3.1.0]hexan-3-yl)-4-oxo-3,4-dihydroquinazolin-8-yl)ethyl)amino)-N-(methylsulfonyl) picolinamide], the negative logarithm of the IC50 (pIC50) in assay [1] (setting [3]) was 6.30 to 6.60; in assay [2] (setting [4]), not above 5.30.

For the molecule `Cc1cc([C@@H](C)Nc2ccc(Cl)nc2C(=O)NS(C)(=O)=O)c2nc(N3CCC(c4ccc(C)nc4)CC3)n(C)c(=O)c2c1` [Compound 271, (R)-6-chloro-3-((1-(3,6-dimethyl-2-(4-(6-methylpyridin-3-yl)piperidin-1-yl)-4-oxo-3,4-dihydroquinazolin-8-yl)ethyl)amino)-N-(methylsulfonyl) picolinamide], the pIC50 in assay [1] (setting [5]) was more than 6.60; in assay [2] (setting [6]) it was 5.30 to 6.00.

For the molecule `Cc1cc([C@@H](C)Nc2ccc(Cl)nc2C(=O)NS(C)(=O)=O)c2nc(N3C[C@@H]4C[C@H]3CN4c3ccccn3)n(C)c(=O)c2c1` [Compound 604, 6-chloro-3-(((R)-1-(3,6-dimethyl-4-oxo-2-((1S,4S)-5-(pyridin-2-yl)-2,5-diazabicyclo [2.2.1]heptan-2-yl)-3,4-dihydroquinazolin-8-yl)ethyl)amino)-N-(methylsulfonyl) picolinamide], the figures for the pIC50 in assay [1] (setting [3]) and in assay [2] (setting [4]) were 6.30 to 6.60 and not above 5.30, respectively.

Turning to `C[C@@H](Nc1ccc(Cl)nc1C(=O)NS(C)(=O)=O)c1cc(C(F)(F)F)cc2c(=O)n(C)c(N3C[C@@H]4[C@H](C3)[C@H]4c3ccn(C)n3)nc12` [Compound 452, 6-chloro-3-(((R)-1-(3-methyl-2-((1R,5S,6R)-6-(1-methyl-1H-pyrazol-3-yl)-3-azabicyclo[3.1.0]hexan-3-yl)-4-oxo-6-(trifluoromethyl)-3,4-dihydroquinazolin-8-yl)ethyl)amino)-N-(methylsulfonyl) picolinamide], the negative logarithm of the IC50 (pIC50) in assay [1] (setting [3]) is 6.30 to 6.60; in assay [2] (setting [4]) it was 5.30 to 6.00.

`Cc1cc([C@@H](C)Nc2ccc(Cl)nc2C(=O)NS(C)(=O)=O)c2nc(N3CCC(c4ccn(-c5cccnc5)n4)CC3)n(C)c(=O)c2c1` [Compound 312, (R)-6-chloro-3-((1-(3,6-dimethyl-4-oxo-2-(4-(1-(pyridin-3-yl)-1H-pyrazol-3-yl)piperidin-1-yl)-3,4-dihydroquinazolin-8-yl)ethyl)amino)-N-(methylsulfonyl) picolinamide]: the pIC50 in assay [1] (setting [5]) was more than 6.60; in assay [2] (setting [6]), 5.30 to 6.00.

Consider `Cc1cc([C@@H](C)Nc2ccc(Cl)nc2C(=O)NS(C)(=O)=O)c2nc(N3CC[C@@H](Oc4ccc(F)cc4)C3)n(C)c(=O)c2c1` [Compound 203, 6-chloro-3-(((R)-1-(2-((R)-3-(4-fluorophenoxy)pyrrolidin-1-yl)-3,6-dimethyl-4-oxo-3,4-dihydroquinazolin-8-yl)ethyl)amino)-N-(methylsulfonyl) picolinamide], for which the pIC50 in assay [1] (setting [5]) is more than 6.60; in assay [2] (setting [6]), 5.30 to 6.00.
